Experimental data published in paper doi:10.1101/2020.05.05.079848v2 (biorxiv, 2020).

Experiments:
[1] = molecular target: SARS-CoV-2 M^pro (main protease, 3CL^pro), full-length (Severe acute respiratory syndrome coronavirus 2, UniProt P0DTD1); test: fluorescent peptide cleavage assay, two doses; type: biochemical; conditions: unreliable; estimated from two doses; limited by low aqueous solubility
[2] = molecular target: SARS-CoV-2 M^pro-N (N-terminal domain with the catalytic core) (Severe acute respiratory syndrome coronavirus 2, UniProt P0DTD1); type: binding; conditions: catalytic pocket, probably more than one site

Compound | IC50 [1] | 1H-15N HSQC chemical shift perturbation [2]
CSc1nc2cc(Cl)c(Oc3cccc(Cl)c3Cl)cc2[nH]1 [triclabendazole] | ~ 70 μM | –
O=C(O)c1cccnc1 [niacin] | – | niacin perturbs H41, G143, N51, and V186
